Drawing on a melting point compilation (Tetko et al.; mined from patent text by program, amines drawn as free bases though some values may be those of a salt), this text covers melting point for 91 compounds.

A word on the melting point: it is the temperature of the solid-liquid transition. Turning to `N#Cc1cnn2c(-c3ccccc3C(F)(F)F)ccnc12`, the melting point fell in the range of 196 to 197 °C.
Under `CS(=O)(=O)Oc1ccccc1S(N)(=O)=O` stands 131 to 132 °C; under `COc1ccc2c(c1)c(S(=O)(=O)c1ccccc1)cn2CCCl`, 148 to 150 °C.
For `CC(C)c1ccc(C2c3cc(NC(=O)CC(C)(C)C)ccc3OC2(C)C)cc1` (stereo unspecified), the melting point lay in the range of 126 to 127 °C.
Consider `Cc1noc(NC(=O)N2CCN(c3nc(-c4cccc(C(F)(F)F)c4)cs3)CC2)c1C`, for which the melting point fell in the range of 230 to 231 °C.
`Cc1nc2ccc3c(c2o1)OC(CN1CCC(n2c(=O)[nH]c4ccccc42)CC1)CO3` (stereo unspecified) had a melting point of 218 to 220 °C.
The value for `FC(F)(F)Oc1ccc(Cn2cnc3c(Cl)ncnc32)cc1` was 115 to 116 °C.
With `[N-]=[N+]=NCCCn1cnc(-c2ccc(F)cc2)c1-c1ccncc1`, the melting point was 64 to 65 °C.
Under `O=C(CCl)Nc1ccccc1C(=O)c1ccccc1C(F)(F)F` stands 79 to 81 °C; under `N#CC=C1c2ccccc2C=Cc2ccccc21`, 137 to 138 °C.
`COc1ccc2c(c1O)C13CCN(C)C(C2)C1C=C(C)C(=O)C3` (stereo unspecified): the melting point is 183 to 185 °C.
Under `COc1cccc(C(=O)Cl)c1OC(C)=O` stands 51 to 54 °C; under `Cc1nc2cc(NC(=O)c3cc4cc(F)ccc4n3Cc3cccc(F)c3)cnc2n1C`, 274 to 275 °C; under `N#CCC1CC(c2ccccc2)=NO1` (stereo unspecified), 79 to 80.5 °C.
Under `C=Cn1cc(C(=O)OCC)c(=O)c2cc(F)c(N3CCC(NC(=O)C(F)(F)F)C3)nc21` (stereo unspecified) stands 280 to 282 °C; under `CCCCCCCCCCCCCCCCNC(=O)NCCCN(C)C`, 78 to 79 °C.
`CCCc1c(OCC(O)CS(=O)(=O)c2ccc(C(=O)CCC(=O)O)cc2F)ccc(C(C)=O)c1O` (stereo unspecified) gave a melting point of 96 to 99 °C.
The value for `N#CCCCCCC(=NO)c1ccc(Cl)cc1` was 58 to 59 °C.
In turn, `NC(=O)c1cc(-c2ccc(Cl)cc2)n(-c2ccc(S(N)(=O)=O)cc2)n1` displayed a melting point of 108 to 110 °C.
The value for `O=C(Nc1cc(F)ccc1O)c1cc(Cl)c(O)c(Cl)c1` was 227 to 229 °C.
`COC(=O)c1cc(C)nc(OC)n1` registered a melting point of 101 to 103 °C.
As for `O=C(O)/C=C/c1ccc(OCCOC2CC2)cc1Oc1ncc(C(F)(F)F)cc1Cl`, the melting point was 147 to 150 °C.
Under `OC(=S)CC1c2ccccc2Oc2ccccc21` stands 131 to 132 °C; under `C=C1CSc2sccc2C1=O`, 64 to 65 °C.
As for `CCCCCCCCCCCCCCOc1ccc(OCc2ccccc2)c(C(=O)OC)c1`, the melting point lay in the range of 43 to 46 °C.
Compound `CN1C(=O)Cc2ccccc21` had a melting point of 83 to 84.5 °C.
In the case of `CCCN1N=C2C(=Cc3ccccc3)CS(=O)CC2C1c1ccccc1` (stereo unspecified), the melting point was in the range of 164 to 166 °C.
The value for `COc1cc(Cc2cnc(N)nc2N)cc2c1NCCC2C` (stereo unspecified) was 221 to 223 °C.
Under `O=C(CCCOc1ccc(-c2ccc(Cl)cc2)cc1)NO` stands 168 to 170 °C; under `CCC(CC)COc1ccc(-n2cc(C(=O)O)cn2)cc1C#N`, 180 to 182 °C; under `CCOP(=O)(OCC)Oc1ccc(/C=C2/C(=O)Nc3cc(OC)c(OC)cc32)cc1`, 139 to 141 °C.
The compound `Nc1ccc(S(=O)(=O)c2cc(Br)nc(N3CCOCC3)c2)cc1` showed a melting point of 244 to 245 °C.
Under `CC1=C(C(=O)c2ccc(Br)cc2)C(=O)C2C(O)=CC=CC2C1=O` (stereo unspecified) stands 161 to 162 °C; under `COC(=O)c1cc(OC(=S)N(C)C)c2cc(-c3ccc(OC)c(C45CC6CC(CC(C6)C4)C5)c3)ccc2c1C`, 137 to 138 °C; under `COCCOc1ccc(CCNC(=O)OCc2ccccc2)c(Oc2ncc(C(F)(F)F)cc2Cl)c1`, 102 to 103 °C.
The value for `CC(=O)Oc1c(C)sc2ccc(C(F)(F)F)cc12` was 59 to 60 °C; that for `COc1ccc2nc(Cl)cc(CC#N)c2c1` was 182 to 184 °C.
The value for `CCNC(=O)C(=CNc1ccc(I)cc1)C(=O)c1ccccc1Cl` was 160 to 162 °C; that for `CCOC(=O)c1ccc2c(c1)C(=O)NC(C(Cl)(Cl)Cl)N2` (stereo unspecified) was 243 to 244 °C; that for `CC(=O)NC(C)Cc1ccc(CCCC(=O)O)cc1` (stereo unspecified) was 114 to 117 °C.
Regarding `C[C@H](COc1ccc(C=C2SC(=S)N(CC(=O)O)C2=O)cc1OCc1ccccc1)c1ccccc1`, the melting point stood at 148 °C.
The compound `O=C1COc2ccc(C3=Nc4ccccc4SC3c3ccccc3)cc2N1` (stereo unspecified) displayed a melting point of 215 to 217 °C.
In turn, `Cc1nnc(C(C)NC(=O)CC(C)C)c(=O)[nH]1` (stereo unspecified) yielded a melting point of 224 to 226 °C.
Under `CC(=O)N1c2ccc(-c3nnn[nH]3)cc2C(Nc2ccc(Cl)cc2)CC1C` (stereo unspecified) stands 190 to 191 °C; under `O=C1Nc2ccccc2N2C(=O)OCC12` (stereo unspecified), 230 to 231 °C.
In turn, `COc1cc(-n2nc3ccc(Cl)cn3c2=O)c(F)cc1N` yielded a melting point of 138 to 140 °C.
The value for `COc1cc(OC)c2c(c1)C(=O)c1cc(C)cc(OC)c1C2=O` was 225 °C.
As for `CCOC(=O)c1c(C(Cl)Cl)nc2c(C(F)(F)F)cccc2c1O`, the melting point was 88 °C.
As to `Cc1ccnn1-c1ccc(Cl)c(Cl)c1`, the melting point was in the range of 46 to 47 °C.
The value for `O=c1n(CCCF)nnn1-c1cc(Oc2ccc([N+](=O)[O-])cc2)c(Cl)cc1F` was 109 to 110 °C; that for `O=c1nc(-c2ccccc2)c2cc([N+](=O)[O-])ccc2n1CC1CC2CCC1C2` (stereo unspecified) was 160 °C.
The value for `CCCCCCCCCCC#Cc1ccc2c(c1)c(C=O)cn2S(=O)(=O)c1ccc(C)cc1` was 84 to 86 °C; that for `CC(C)(C)Oc1ccc(C(=O)N[C@H]2CC[C@H](CCN3CCC(c4cccc5c4CCO5)CC3)CC2)cc1` was 216 °C.
Under `COc1cc(N=C2SC(=CC(=O)O)C(=O)N2c2cc(OC)c(OC)c(OC)c2)cc(OC)c1OC` stands 250 to 252 °C; under `CN(C(=O)c1ccccc1)C1CCC(=O)CC1`, 126 to 128 °C.
Regarding `S=C(S)CCc1ccccc1`, the melting point is 57 to 59 °C.
The value for `CCC12CCC(=O)C=C1c1c(cc(OCC(=O)O)c(Cl)c1Cl)C2C` (stereo unspecified) was 212 to 214 °C; that for `N#CC(CO)Cc1cc(O)c(O)c([N+](=O)[O-])c1` (stereo unspecified) was 149 to 152 °C; that for `O=C1O[C@@H](CO)CN1c1cccc(F)c1` was 106 to 108 °C.
The value for `CC(=O)OCc1cccc(N)c1I` was 80 to 81 °C.
Under `C=CCOc1cc(C=CC(=O)O)ccc1OC(C)=O` stands 154 to 155 °C; under `CCN(CC)c1ccc([N+](=O)[O-])cc1C#N`, 83 to 85 °C; under `CN1CCC(O)(c2cccc(Cl)c2F)C1` (single isomer, unassigned; (+)), 123 to 125 °C.
For `CCc1cc2[nH]c(=O)c(=O)[nH]c2cc1CC`, the melting point is over 360 °C.
The value for `CCc1cc(SCc2cccc3oc(-c4ccc(C(F)(F)F)cc4)nc23)ccc1OCC(=O)O` was 127 to 128 °C; that for `CC(C)(C)OC(=O)N1CCc2cc(N)c(N)cc2CC1` was 147 to 149 °C.
On to `CCc1nnc(CCc2ccc(NC(=O)/C=C/c3cnn(C)c3-c3ccc(F)cc3)cc2)o1`, for which the melting point lay within 167 to 168 °C.
Under `Cc1cccc2sc(-n3nc(CCC(=O)N(C)O)cc3-c3ccc(Cl)cc3)nc12` stands 156 to 158 °C; under `CCOC(=O)CCCCCOc1ccc(C(=O)Nc2ccccc2Sc2ccccc2-c2nnn[nH]2)cc1`, 137 to 138 °C.
The value for `Cc1nc(O)c2[nH]nc(C(C)C)c2n1` was over 250 °C.
On to `CSc1ccc2c(=O)c(OS(C)(=O)=O)cn(C)c2c1`, for which the melting point is 182 °C.
Under `ClC1=Nc2cc(Br)ccc2Oc2cscc21` stands 196 to 197 °C; under `NC1=Nc2ccc([N+](=O)[O-])cc2C(c2ccccc2F)=NC1`, 225 to 227 °C.
The value for `COc1ccc(C2=NN(c3ccccc3)C(c3ccc(N)cc3)C2)cc1` (stereo unspecified) was 164 to 166 °C.
On to `CC(=O)CC(=O)NC12CC3CC(CC(C3)C1)C2`, for which the melting point was 80 °C.
Under `CC(C)(C)Sc1c(CC(C)(C)C(=O)O)n(Cc2ccc(Cl)cc2)c2ccc(OCc3cccs3)cc12` stands 204 to 205 °C; under `Cc1c(NS(=O)(=O)c2ccccc2)cc(C(C)(C)C)cc1SC1=C(O)CC(CCc2ccc(O)cc2)(C2CCCC2)OC1=O` (racemic), 125 to 127 °C.
`CS(=O)(=O)c1ccc(Oc2cc3nc(-c4ccccc4)oc3cc2[N+](=O)[O-])cc1` showed a melting point of 123 to 125 °C.
Compound `COc1cc(COc2nn(-c3ccccc3)cc2/C=C\c2cscn2)ccc1OCc1nc(-c2ccco2)oc1C` came in with a melting point of 137 to 138 °C.
Compound `CCCCn1nc(-c2ccccc2)c(CC(=O)O)c1-c1ccccc1` gave a melting point of 97 to 98 °C.
For the compound `CCOCCn1cc2c(C3C(=O)Nc4ccc(Cl)cc43)nc(NCc3cccnc3)nc2n1` (stereo unspecified), the melting point is 294 to 296 °C.
The value for `O=C1N(C(c2ccccc2)c2ccccc2)c2c(F)cccc2C1(O)c1cc2c(cc1O)OCC2` (stereo unspecified) was 121 to 122 °C; that for `O=C(O)CNC(=O)C(c1ccccc1)c1ccccc1` was 113 to 115 °C.
The value for `Cc1cc(Sc2sc(-c3ccc(C(F)(F)F)cc3)nc2C)ccc1Cc1nn[nH]n1` was 248 °C; that for `CC(C)C1(C)N=C(c2ncc(C3CC3)cc2C(=O)O)NC1=O` (stereo unspecified) was 157 to 163 °C.
Under `CP(C)(=O)CN1CCC(c2nn(-c3ccc(C(F)(F)F)cc3)c3ccccc23)CC1` stands 158 to 160 °C; under `CCOC(=O)c1cc2cc(-c3ccccc3)ccc2[nH]1`, 173 to 174 °C.
Compound `CCCCn1c(O)nc2c(N)ncnc21` gave a melting point of 222 to 224 °C.
The value for `CCCCc1ccc(C(=O)Oc2ccc(C=O)cc2)cc1` was 49.7 °C; that for `CC(C)(C)OC(=O)NCc1ccc(N2CC(C(=O)N3CCN(CCC(=O)OCc4ccccc4)CC3)OC2=O)cc1` (stereo unspecified) was 128 to 130 °C; that for `O=C(O)CCC(CCC(=O)O)(CCC(=O)O)C(=O)c1ccc(Cl)cc1` was 135 to 137 °C.
